Consider eleven compounds from patent US7288562B2, “Fluoro and sulphonylamino containing 3,6-disubstituted azabicyclo (3.1.0) hexane derivatives as muscarinic receptor antagonists” (priority 2002, dated 2007).

Like-named read-outs stand apart in the source and are kept apart here. Where only a bound is given, the exact number is not on record here.

The target of one experiment is T1, M2 muscarinic receptor (Rattus norvegicus, UniProt P10980).
T1 construct: from tissue; host or cells: rat heart membrane homogenate
T1 sequence (P10980 1-466): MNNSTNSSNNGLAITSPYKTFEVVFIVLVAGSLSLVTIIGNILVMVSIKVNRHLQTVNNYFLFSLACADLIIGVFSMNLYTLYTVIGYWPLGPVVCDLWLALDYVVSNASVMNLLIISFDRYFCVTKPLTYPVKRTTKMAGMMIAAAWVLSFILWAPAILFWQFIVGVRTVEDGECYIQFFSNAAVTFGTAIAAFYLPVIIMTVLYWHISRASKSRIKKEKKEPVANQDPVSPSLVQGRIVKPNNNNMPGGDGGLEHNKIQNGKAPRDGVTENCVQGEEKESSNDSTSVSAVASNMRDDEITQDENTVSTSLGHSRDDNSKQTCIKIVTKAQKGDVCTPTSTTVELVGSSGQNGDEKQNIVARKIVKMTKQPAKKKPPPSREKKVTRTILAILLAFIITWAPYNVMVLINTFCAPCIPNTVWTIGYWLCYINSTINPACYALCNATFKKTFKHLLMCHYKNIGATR
Briefly: Radioligand binding assay, [3H]-N-methylscopolamine, rat heart membranes. As to conditions: [3H]-NMS. The procedure: (§1) The affinity of test compounds for M2 and M3 muscarinic receptor subtypes was determined by [^3H]-N-methylscopolamine binding studies using rat heart and submandibular gland respectively as described by Moriya et al., (Life Sci, 1999, 64(25):2351-2358) with minor modifications.
(§2) Membrane preparation: Submandibular glands and heart were isolated and placed in ice cold homogenising buffer (HEPES 20 mM, 10 mM EDTA, pH 7.4) immediately after sacrifice. The tissues were homogenised in 10 volumes of homogenising buffer and the homogenate was filtered through two layers of wet gauze and filtrate was centrifuged at 500 g for 10 min. The supernatant was subsequently centrifuged at 40,000 g for 20 min. The pellet thus obtained was resuspended in same volume of assay buffer (HEPES 20 mM, EDTA 5 mM, pH 7.4) and were stored at −70° C. until the time of assay.
(§3) Ligand binding assay: The compounds were dissolved and diluted in DMSO. The membrane homogenates (150-250 μg protein) were incubated in 250 μl of assay buffer (HEPES 20 mM, pH 7.4) at 24-25° C. for 3 h. Non-specific binding was determined in the presence of 1 μM atropine. The incubation was terminated by vacuum filtration over GF/B fiber filters(Wallac). The filters were then washed with ice cold 50 mM Tris HCl buffer (pH 7.4). The filter mats were dried and bound radioactivity retained on filters was counted. The IC50 & Kd were estimated by using the non-linear curve fitting program using G Pad Prism software. The value of inhibition constant Ki was calculated from competitive binding studies by using Cheng & Prusoff equation (Biochem Pharmacol, 1973, 22: 3099-3108), Ki=IC50/(1+L/Kd), where L is the concentration of
(§4) [^3H]NMS used in the particular experiment.

The next experiment has as its target T2, M3 muscarinic receptor (Rattus norvegicus, UniProt P08483).
T2 construct: from tissue; host or cells: rat submandibular gland membrane homogenate
Put plainly: Radioligand binding assay, [3H]-N-methylscopolamine, rat submandibular gland membranes. As to conditions: [3H]-NMS. The procedure:
as §1, §2, §3, §4

Another experiment deals with isolated rat bladder. Briefly: Functional experiments using isolated rat bladder (carbachol-induced contraction). The note with it: isolated rat bladder strips, carbachol concentration response curve. The procedure: Functional Experiments Using Isolated Rat Bladder:
Animals were euthanized by overdose of urethane and whole bladder was isolated and removed rapidly and placed in ice cold Tyrode buffer with the following composition (mMol/L) NaCl 137; KCl 2.7; CaCl2 1.8; MgCl2 0.1; NaHCO3 11.9; NaH2PO4 0.4; Glucose 5.55 and continuously gassed with 95% O2 and 5% CO2.
The bladder was cut into longitudinal strips (3 mm wide and 5-6 mm long) and mounted in 10 ml organ baths at 30° C., with one end connected to the base of the tissue holder and the other end connected to a polygraph through a force displacement transducer. Each tissue was maintained at a constant basal tension of 2 g and allowed to equilibrate for 1 hour during which the PSS was changed every 15 min. At the end of equilibration period the stabilization of the tissue contractile response was assessed with 1 μmol/L of Carbachol consecutively for 2-3 times. Subsequently a cumulative concentration response curve to carbachol (10^−9 mol/L to 3×10^−5 mol/L) was obtained. After several washes, once the baseline was achieved, cumulative concentration response curve was obtained in presence of NCE (NCE added 20 min. prior to the second CRC).
The contractile results were expressed as % of control E max. ED50 values were calculated by fitting a non-linear regression curve (Graph Pad Prism). pKB values were calculated by the formula pKB=−log [(molar concentration of antagonist/(dose ratio-1))]
• dose ratio=ED50 in the presence of antagonist/ED50 in the absence of antagonist.

Setting [1] is: read-out: Receptor Binding Assay M2 pKi (converted).
[2] abbreviates: read-out: Receptor Binding Assay M3 pKi (converted).

T2 sequence (P08483 whole entry): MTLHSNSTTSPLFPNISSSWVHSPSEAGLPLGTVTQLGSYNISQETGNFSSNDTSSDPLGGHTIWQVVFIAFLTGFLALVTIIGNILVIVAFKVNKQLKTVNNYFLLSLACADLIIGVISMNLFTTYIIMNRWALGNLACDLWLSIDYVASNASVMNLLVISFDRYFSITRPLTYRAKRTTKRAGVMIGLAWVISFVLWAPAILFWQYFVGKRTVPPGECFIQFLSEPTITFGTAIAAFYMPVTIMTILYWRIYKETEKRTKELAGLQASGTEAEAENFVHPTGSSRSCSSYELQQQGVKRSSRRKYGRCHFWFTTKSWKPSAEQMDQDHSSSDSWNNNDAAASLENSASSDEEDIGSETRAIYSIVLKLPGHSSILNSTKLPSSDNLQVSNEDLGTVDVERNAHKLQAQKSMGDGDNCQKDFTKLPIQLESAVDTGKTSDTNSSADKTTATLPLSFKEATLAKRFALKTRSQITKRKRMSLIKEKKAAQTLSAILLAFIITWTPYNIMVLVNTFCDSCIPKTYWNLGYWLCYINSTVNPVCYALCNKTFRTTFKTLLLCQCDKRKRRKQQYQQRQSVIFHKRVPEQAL

On to `O=C(NCC1C2CN(Cc3ccccc3)CC12)C(O)(c1ccccc1)C1CCC(F)(F)C1` (mixture of isomers) [Compound No. 3, (2Ror 2S)-(1α,5α,6α)-N-[3-benzyl-3-azabicyclo[3.1.0]hexyl-6-(aminomethyl)-yl]-2-[(1R or 1S)-3,3-difluorocyclopentyl]-2-hydroxy-2-phenyl acetamide], for which the Ki on M2 muscarinic receptor (setting [1]) is 251 nM; at M3 muscarinic receptor (setting [2]), 6.31 nM. Moreover, in the experiment with isolated rat bladder, the “Functional Assay pKB” value is given as 8.55 ± 0.25.

Regarding `O=C(NC[C@@H]1[C@H]2CN(Cc3ccccc3)C[C@@H]12)[C@](O)(c1ccccc1)C1CCC(F)(F)C1` (single isomer, unassigned) [Compound No. 1A, (2R)-(1α,5α,6α)-N-[3-benzyl-3-azabicyclo[3.1.0]hexyl-6-(aminomethyl)-yl]-2-[(1R or 1S)-3,3-difluorocyclopentyl]-2-hydroxy-2-phenylacetamide], the values for the Ki on M2 muscarinic receptor (setting [1]) and on M3 muscarinic receptor (setting [2]) were 135 nM and 5.62 nM, respectively. For the same compound, in the experiment with isolated rat bladder, the “Functional Assay pKB” value came out at 9.1 ± 0.2.

As for `O=C(NC[C@@H]1[C@H]2CN(Cc3ccccc3)C[C@@H]12)[C@](O)(c1ccccc1)C1CCC(F)(F)C1` (single isomer, unassigned) [Compound No. 1B, (2R)-(1α,5α,6α)-N-[3-benzyl-3-azabicyclo[3.1.0]hexyl-6-(aminomethyl)-yl]-2-[(1R or 1S)-3,3-difluorocyclopentyl]-2-hydroxy-2-phenylacetamide], the Ki on M2 muscarinic receptor (setting [1]) was 229 nM; on M3 muscarinic receptor (setting [2]) it was 6.17 nM. Moreover, the “Functional Assay pKB” value in the experiment on isolated rat bladder came out at 8.98 ± 0.06.

In the case of `O=C(NCC1C2CN(Cc3ccccc3)CC12)C(O)(c1ccccc1)C1CCC(F)C1` (single isomer, unassigned) [Compound No. 4, (2R or 2S)-(1α,5α,6α)-N-[3-benzyl-3-azabicyclo[3.1.0]hexyl-6-(aminomethyl)-yl]-2-[(1R or 1S, 3R or 3S)-3-fluorocyclopentyl]-2-hydroxy-2-phenyl acetamide], the values for the Ki on M2 muscarinic receptor (setting [1]) and on M3 muscarinic receptor (setting [2]) were 138 nM and 5.89 nM, respectively. Further, the “Functional Assay pKB” value with isolated rat bladder is on record as 8.33 ± 0.15.

For `O=C(NCC1C2CN(Cc3ccccc3)CC12)C(O)(c1ccccc1)C1CCC(NS(=O)(=O)c2ccc([N+](=O)[O-])cc2)C1` (single isomer, unassigned) [Compound No. 6, (2R)-(1α,5α,6α)-N-[3-benzyl-3-azabicyclo[3.1.0]hexyl-6-(aminomethyl)-yl]-2-[(1R or 1S, 3R or 3S)-3-(4-nitrophenyl)sulphonylaminocyclopentyl]-2-hydroxy-2-phenylacetamide], the Ki at M2 muscarinic receptor (Receptor Binding Assay M2 pKi) is greater than 1580 nM; on M3 muscarinic receptor (Receptor Binding Assay M3 pKi), 21.9 nM. Further, the “Functional Assay pKB” value in the experiment with isolated rat bladder was 7.21 ± 0.20.

Take `O=C(COCc1ccccc1)NC1CCC(C(O)(C(=O)NCC2C3CN(Cc4ccccc4)CC23)c2ccccc2)C1` (single isomer, unassigned) [Compound No. 8, (2R)-(1α,5α,6α)-N-[3-benzyl-3-azabicyclo[3.1.0]hexyl-6-(aminomethyl)-yl]-2-[(1R or 1S, 3R or 3S)-3-benzyloxyacetylaminocyclopentyl]-2-hydroxy-2-phenylacetamide]: the Ki on M2 muscarinic receptor (setting [1]) was 209 nM; on M3 muscarinic receptor (setting [2]) it was 34.7 nM. Also, in the experiment on isolated rat bladder, the “Functional Assay pKB” value was found to be 7.08 ± 0.18.

As for `O=C(NC[C@@H]1[C@H]2CN(Cc3ccccc3)C[C@@H]12)[C@](O)(c1ccccc1)C1CCC(F)C1` (stereo partly drawn) [Compound No. 2, (2R(1α,5α,6α)-N-[3-benzyl-3-azabicyclo[3.1.0]hexyl-6-(aminomethyl)-yl]-2-[(1R or 1S, 3R or 3S)-3-fluorocyclopentyl]-2-hydroxy-2-phenylacetamide], the Ki on M2 muscarinic receptor (setting [1]) is 126 nM; on M3 muscarinic receptor (setting [2]), 3.98 nM. In addition, in the experiment with isolated rat bladder, the “Functional Assay pKB” value is recorded as 8.84 ± 0.07.

Consider `O=C(Cc1ccccc1)NC1CCC([C@](O)(C(=O)NC[C@@H]2[C@H]3CN(Cc4ccccc4)C[C@@H]23)c2ccccc2)C1` (stereo partly drawn) [Compound No. 5, (2R)-(1α,5α,6α)-N-[3-benzyl-3-azabicyclo[3.1.0]hexyl-6-(aminomethyl)-yl]-2-[(1R or 1S, 3R or 3S)-3-phenylacetylaminocyclopentyl]-2-hydroxy-2-phenylacetamide], for which the Ki is 832 nM on M2 muscarinic receptor (setting [1]) and 39.8 nM on M3 muscarinic receptor (setting [2]). Besides, the “Functional Assay pKB” value in the experiment with isolated rat bladder is reported as 7.07 ± 0.11.

As to `O=C(NC[C@@H]1[C@H]2CN(Cc3ccccc3)C[C@@H]12)[C@](O)(c1ccccc1)C1CCC(NS(=O)(=O)c2ccccc2)C1` (stereo partly drawn) [Compound No. 7, (2R)-(1α,5α,6α)-N-[3-benzyl-3-azabicyclo[3.1.0]hexyl-6-(aminomethyl)-yl]-2-[(1R or 1S, 3R or 3S)-3-phenylsulphonylaminocyclopentyl]-2-hydroxy-2-phenylacetamide], the results for the Ki at M2 muscarinic receptor (Receptor Binding Assay M2 pKi) and on M3 muscarinic receptor (Receptor Binding Assay M3 pKi) were greater than 1580 nM and 50.1 nM, respectively. Further, the “Functional Assay pKB” value with isolated rat bladder is 6.89 ± 0.29.

Regarding `COc1ccc(S(=O)(=O)NC2CCC([C@](O)(C(=O)NC[C@@H]3[C@H]4CN(Cc5ccccc5)C[C@@H]34)c3ccccc3)C2)cc1` (stereo partly drawn) [Compound No. 9, (2R)-(1α,5α,6α)-N-[3-benzyl-3-azabicyclo[3.1.0]hexyl-6-(aminomethyl)-yl]-2-[(1R or 1S, 3R or 3S)-3-(4-methoxyphenyl)sulphonylaminocyclopentyl]-2-hydroxy-2-phenylacetamide], the Ki on M2 muscarinic receptor (Receptor Binding Assay M2 pKi) is greater than 1000 nM; at M3 muscarinic receptor (Receptor Binding Assay M3 pKi), 204 nM.

On to `O=C(NC[C@@H]1[C@H]2CN(Cc3ccccc3)C[C@@H]12)[C@](O)(c1ccccc1)C1CCC(NS(=O)(=O)c2ccc(Br)cc2)C1` (stereo partly drawn) [Compound No. 10, (2R)-(1α,5α,6α)-N-[3-benzyl-3-azabicyclo[3.1.0]hexyl-6-(aminomethyl)-yl]-2-[(1R or 1S, 3R or 3S)-3-(4-bromophenyl)sulphonylaminocyclopentyl]-2-hydroxy-2-phenylacetamide], for which the results for the Ki on M2 muscarinic receptor (Receptor Binding Assay M2 pKi) and at M3 muscarinic receptor (Receptor Binding Assay M3 pKi) were greater than 1000 nM and 129 nM, respectively.
